The values that follow come from the NIST ThermoML archive (doi:10.1016/j.fluid.2006.02.002).

Numbers after ± are expanded uncertainties.

The conditions of the data set: Liquid; ebulliometry.
Take `CNC(C)=O` [N-methylacetamide]: the Normal boiling temperature came to 204.92 ± 0.2 °C.
For the compound `CN1CCCC1=O` [N-methylpyrrolidone], the Normal boiling temperature amounted to 203.86 ± 0.2 °C.
For `CC(=O)O` [acetic acid], the Normal boiling temperature stood at 117.70 ± 0.2 °C.
To `O` [water] belongs 99.81 ± 0.2 °C.
